Literature values, collected in patent publication US10357461B2, “Physically dispersed, molecularly dissolved and/or chemically bound drug(s) in an empty, hard capsule shell composition” (priority 2005, dated 2019).
Values after ≈ are worked out from the molar mass of the structure shown. Each block holds one molecule with its values, some of them ahead of it.

Assays:
[1] = people taking metformin

SMILES: COc1cc2c(c(OC)c1OC)-c1ccc(OC)c(=O)cc1[C@@H](NC(C)=O)CC2 [Colchicine]
- solubility in water (water): 7000 µg/mL (≈ 17.5 mM)

- water solubility (water at 25° C.): 1.8 µg/mL (≈ 0.00491 mM)
SMILES: C[C@]12CCC(=O)C=C1[C@@H]1C[C@@H]1[C@H]1[C@@H]3[C@@H]4C[C@@H]4[C@@]4(CCC(=O)O4)[C@@]3(C)CC[C@@H]12 [Drospirenone]

- people taking the drug who face vitamin B12 deficiency [1]: ~30%
SMILES: CN(C)C(=N)N=C(N)N [metformin]
